Reference: PubChem BioAssay (NCI)
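All cell lines were grown in 96-well plates and treated with compound for 48 hours. The concentration for 50% growth inhibition is given as GI50. TGI marks complete inhibition of growth.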

How the values were obtained:
Assay in all cases: DTP human tumour cell line panel, 48 h
M14 melanoma = system: M14 melanoma
CAKI-1 renal = system: CAKI-1 renal
SK-MEL-2 melanoma = system: SK-MEL-2 melanoma
UACC-257 melanoma = system: UACC-257 melanoma
PC-3 prostate = system: PC-3 prostate
HCT-116 colon = system: HCT-116 colon
SK-OV-3 ovarian = system: SK-OV-3 ovarian
SF-539 CNS = system: SF-539 CNS
LOX IMVI melanoma = system: LOX IMVI melanoma
SF-295 CNS = system: SF-295 CNS

Row | SMILES | GI50 (M14 melanoma) [µM] | TGI (M14 melanoma) [µM] | GI50 (CAKI-1 renal) [µM] | TGI (CAKI-1 renal) [µM] | GI50 (SK-MEL-2 melanoma) [µM] | TGI (SK-MEL-2 melanoma) [µM] | GI50 (UACC-257 melanoma) [µM] | TGI (UACC-257 melanoma) [µM] | GI50 (PC-3 prostate) [µM] | TGI (PC-3 prostate) [µM] | GI50 (HCT-116 colon) [µM] | TGI (HCT-116 colon) [µM] | GI50 (SK-OV-3 ovarian) [µM] | TGI (SK-OV-3 ovarian) [µM] | GI50 (SF-539 CNS) [µM] | TGI (SF-539 CNS) [µM] | GI50 (LOX IMVI melanoma) [µM] | TGI (LOX IMVI melanoma) [µM] | GI50 (SF-295 CNS) [µM] | TGI (SF-295 CNS) [µM]
1 | Nc1n[nH]c2ccc([C@@H]3Nc4cc5c(cc4[C@H]4C6CCC(C6)[C@@H]34)C(=O)NC5)cc12 (stereo partly drawn) | 0.287 | > 43.1 | 0.498 | > 100 | 15 | > 100 | > 100 | > 100 | 0.471 | > 100 | 0.343 | > 100 | 0.844 | > 100 | 0.258 | 0.814 | 0.291 | > 100 | 0.323 | > 42
2 | O=C(Nc1ccccc1OC(=O)c1ccccc1)c1ccccc1 | 25.3 | > 100 | 5.84 | 54.4 | 51.1 | > 100 | 35.1 | > 100 | 6.11 | > 100 | 3.69 | > 100 | 33.6 | > 100 | 22.8 | > 100 | 3.92 | > 100 | 2.47 | 8.03
3 | CC(=O)O[C@@H]1C[C@@]2(C)[C@@H]3CC=C4[C@@H](C[C@H](O)C(=O)C4(C)C)[C@]3(C)C(=O)C[C@]2(C)[C@H]1[C@@](C)(O)C(=O)/C=C/C(C)(C)OC(C)=O | – | 14.9 | – | 0.397 | – | > 25.4 | – | 50.4 | – | > 47 | – | > 72.9 | – | 51.5 | – | 12.6 | – | > 33 | – | 34.1
4 | CN1CCN(CCCCCN=c2cc3c(=O)n(CCCCCN4CCN(C)CC4)c(=O)c4c(NCCCCCN5CCN(C)CC5)cc5c(O)n(CCCCCN6CCN(C)CC6)c(=O)c2c5c4-3)CC1 | 35 | > 100 | > 100 | > 100 | 2.69 | 7.43 | 2.6 | 6.56 | 3.32 | 19.4 | 3.31 | 17.3 | 2.03 | 5.62 | 2.64 | 8.32 | 2.94 | 12.8 | 15.7 | 57.2
5 | COc1cc2ncc3c(nc4sccn43)c2cc1OC | 16.4 | 78.2 | 2.38 | 21.2 | 31.1 | > 100 | 43.8 | > 100 | 47.9 | > 100 | 13.7 | 78.2 | 30.1 | > 100 | 15.6 | 55.2 | 15.6 | > 100 | 18.3 | 62.8
6 | Nc1nc(N)c(CCCCc2ccccc2)c(N)n1 | – | > 100 | – | > 100 | – | > 100 | – | > 100 | – | > 100 | – | > 100 | – | > 100 | – | > 100 | – | > 100 | – | > 100
7 | COc1cc2c(cc1F)C(c1ccccc1Cl)=Nc1c(n[nH]c1C)N2 | 0.911 | 22 | 0.609 | 14.7 | 1.08 | 17.3 | 11.1 | 25.4 | 12.3 | > 50.1 | 0.639 | 18.4 | 1.59 | 33.1 | 0.389 | 2.39 | 0.94 | 13.1 | 0.477 | 15.7
8 | Oc1cc(-n2cccn2)c(O)cc1-n1cccn1 | – | 60.4 | – | 53.8 | – | > 100 | – | 69.3 | – | 44.8 | – | > 64.1 | – | > 100 | – | > 78.6 | – | 42.4 | – | 60.2
9 | COc1cc(C(=O)c2cc(C)c3[nH]c4ccc(O)cc4c3c2C)cc(OC)c1OC | 0.0185 | > 100 | < 0.01 | > 47.6 | 0.457 | > 100 | 6.42 | > 100 | < 0.02 | > 100 | < 0.01 | – | 0.267 | 98.6 | < 0.0113 | – | < 0.0143 | > 100 | < 0.01 | 0.326
10 | FC(F)(F)c1cccc(-c2nn3ncccc3c2-c2ccnc(Nc3ccc4c(c3)OCCO4)n2)c1 | 17.6 | > 25 | 7.66 | > 25 | > 25 | > 25 | 9.5 | > 25 | 10.5 | > 25 | 9.75 | > 25 | 8.99 | > 25 | > 25 | > 25 | 10 | > 25 | 18.2 | > 25
